Assay results reported in US10844077B2, “Thiazolyl-containing compounds for treating proliferative diseases” (Dana-Farber Cancer Institute, Inc., priority 2014, dated 2020).
Read-outs that look alike come from different tables or passages of the source.

Columns and labels:
Format in all cases: cell-based
[1] = target: kinases in BCWM.1 cells (Homo sapiens, UniProt Q86Y07); settings: VRK2; Lys2; 1 μM, 90 min; GF
Procedure: (§1) The cells were harvested and lysed. […] Bound kinases were identified and quantitated by ACTIVX as described in Patricelli et al., Biochemistry, 2007, 46(2): 350-358. The compounds were tested in duplicates against duplicate or quadruplicate control samples.

[2] = target: kinases in BCWM.1 cells (Homo sapiens, UniProt Q9NRH2); settings: SNRK; Lys2; 1 μM, 90 min; GF
Procedure: as §1

[3] = target: kinases in BCWM.1 cells (Homo sapiens, UniProt P51957); settings: NEK4; Lys2; 1 μM, 90 min; GF
Procedure: as §1

[4] = target: kinases in BCWM.1 cells (Homo sapiens, UniProt P51812); settings: Lys2, 1 μM, 90 min, GF
Procedure: as §1

[5] = target: kinases in BCWM.1 cells (Homo sapiens, UniProt P43405); settings: SYK; Activation Loop; 1 μM, 90 min; GF
Procedure: as §1

[6] = target: kinases in BCWM.1 cells (Homo sapiens, UniProt O00750); settings: PIK3C2B; ATP; 1 μM, 90 min; GF
Procedure: as §1

[7] = target: kinases in BCWM.1 cells (Homo sapiens, UniProt Q9UBS0); settings: p70S6Kb; Lys2; 1 μM, 90 min; GF
Procedure: as §1

[8] = target: kinases in BCWM.1 cells (Homo sapiens, UniProt O43318); settings: TAK1; Lys2; 1 μM, 90 min; GF
Procedure: as §1

[9] = target: kinases in BCWM.1 cells (Homo sapiens, UniProt Q9NZJ5); settings: PEK; Lys2; 1 μM, 90 min; GF
kinases in BCWM.1 cells (Homo sapiens, UniProt Q9NZJ5), sequence (Q9NZJ5 30-1116 limits assumed): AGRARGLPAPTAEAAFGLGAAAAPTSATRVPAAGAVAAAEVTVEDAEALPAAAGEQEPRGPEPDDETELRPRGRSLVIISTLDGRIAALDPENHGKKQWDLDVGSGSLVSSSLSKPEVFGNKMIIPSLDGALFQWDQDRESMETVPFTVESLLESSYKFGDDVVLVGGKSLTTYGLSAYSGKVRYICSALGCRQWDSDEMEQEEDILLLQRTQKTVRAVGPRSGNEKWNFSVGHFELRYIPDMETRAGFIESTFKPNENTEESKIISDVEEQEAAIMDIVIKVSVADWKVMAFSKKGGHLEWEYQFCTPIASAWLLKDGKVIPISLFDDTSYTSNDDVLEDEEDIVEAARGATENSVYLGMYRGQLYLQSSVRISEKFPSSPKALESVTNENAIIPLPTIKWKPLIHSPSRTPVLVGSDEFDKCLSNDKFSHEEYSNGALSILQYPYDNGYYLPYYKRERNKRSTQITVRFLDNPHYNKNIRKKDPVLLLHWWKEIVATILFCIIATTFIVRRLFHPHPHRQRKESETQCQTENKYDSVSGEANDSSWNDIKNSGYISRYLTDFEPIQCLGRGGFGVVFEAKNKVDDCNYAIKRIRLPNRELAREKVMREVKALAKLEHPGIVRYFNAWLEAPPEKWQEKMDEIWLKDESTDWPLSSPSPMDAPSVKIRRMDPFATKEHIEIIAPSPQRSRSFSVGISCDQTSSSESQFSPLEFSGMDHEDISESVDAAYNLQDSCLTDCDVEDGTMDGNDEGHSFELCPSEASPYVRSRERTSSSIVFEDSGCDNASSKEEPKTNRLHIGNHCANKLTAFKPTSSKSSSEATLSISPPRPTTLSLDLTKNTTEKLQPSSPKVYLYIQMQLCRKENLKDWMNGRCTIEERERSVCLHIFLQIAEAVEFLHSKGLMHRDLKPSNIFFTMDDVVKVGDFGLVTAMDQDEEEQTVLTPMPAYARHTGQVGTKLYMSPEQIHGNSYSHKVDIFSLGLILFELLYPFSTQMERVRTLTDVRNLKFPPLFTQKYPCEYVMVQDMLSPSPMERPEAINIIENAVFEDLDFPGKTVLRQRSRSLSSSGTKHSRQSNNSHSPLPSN
Procedure: as §1

[10] = target: kinases in BCWM.1 cells (Homo sapiens, UniProt Q16539); settings: p38a, 1 μM, 90 min, GF
kinases in BCWM.1 cells (Homo sapiens, UniProt Q16539), sequence (Q16539 2-360 limits assumed): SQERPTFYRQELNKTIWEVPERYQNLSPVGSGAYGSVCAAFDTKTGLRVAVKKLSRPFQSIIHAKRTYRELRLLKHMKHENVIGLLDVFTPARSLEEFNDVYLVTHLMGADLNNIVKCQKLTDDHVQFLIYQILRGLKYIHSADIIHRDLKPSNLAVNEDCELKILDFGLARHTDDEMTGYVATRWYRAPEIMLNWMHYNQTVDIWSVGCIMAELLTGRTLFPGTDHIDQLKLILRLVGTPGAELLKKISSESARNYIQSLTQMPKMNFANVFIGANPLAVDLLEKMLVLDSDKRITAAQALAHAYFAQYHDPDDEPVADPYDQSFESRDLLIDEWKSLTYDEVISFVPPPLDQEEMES
Procedure: as §1

[11] = target: kinases in BCWM.1 cells (Homo sapiens, UniProt P42680); settings: TEC; Activation Loop; 1 μM, 90 min; GF
Procedure: as §1

[12] = target: kinases in BCWM.1 cells (Homo sapiens, UniProt P12931); settings: SRC; Lys1; 1 μM, 90 min; GF
kinases in BCWM.1 cells (Homo sapiens, UniProt P12931), sequence (P12931 2-536 limits assumed): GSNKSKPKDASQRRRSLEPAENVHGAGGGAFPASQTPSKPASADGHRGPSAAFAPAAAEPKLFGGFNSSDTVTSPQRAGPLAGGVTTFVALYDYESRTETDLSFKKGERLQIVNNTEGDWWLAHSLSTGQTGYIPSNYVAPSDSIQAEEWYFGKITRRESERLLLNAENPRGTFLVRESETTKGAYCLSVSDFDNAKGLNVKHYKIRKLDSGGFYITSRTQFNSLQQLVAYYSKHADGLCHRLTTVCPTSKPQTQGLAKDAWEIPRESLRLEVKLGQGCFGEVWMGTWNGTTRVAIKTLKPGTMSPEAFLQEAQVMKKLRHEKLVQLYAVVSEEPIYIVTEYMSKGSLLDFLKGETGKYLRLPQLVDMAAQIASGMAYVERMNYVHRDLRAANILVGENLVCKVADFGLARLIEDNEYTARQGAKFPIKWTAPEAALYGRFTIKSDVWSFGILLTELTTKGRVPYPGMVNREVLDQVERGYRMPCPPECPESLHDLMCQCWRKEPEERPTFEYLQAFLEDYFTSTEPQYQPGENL
Procedure: as §1

[13] = target: kinases in BCWM.1 cells (Homo sapiens, UniProt P04049); settings: RAF1; Lys2; 1 μM, 90 min; GF
Procedure: as §1

[14] = target: kinases in BCWM.1 cells (Homo sapiens, UniProt Q96Q15); settings: SMG1; ATP; 1 μM, 90 min; GF
Procedure: as §1

[15] = target: kinases in BCWM.1 cells (Homo sapiens, UniProt Q8TDX7); settings: NEK7; Lys1; 1 μM, 90 min; GF
Procedure: as §1

[16] = target: kinases in BCWM.1 cells (Homo sapiens, UniProt Q8TBX8); settings: PIP4K2C; ATP; 1 μM, 90 min; GF
kinases in BCWM.1 cells (Homo sapiens, UniProt Q8TBX8), sequence (Q8TBX8 2-421 limits assumed): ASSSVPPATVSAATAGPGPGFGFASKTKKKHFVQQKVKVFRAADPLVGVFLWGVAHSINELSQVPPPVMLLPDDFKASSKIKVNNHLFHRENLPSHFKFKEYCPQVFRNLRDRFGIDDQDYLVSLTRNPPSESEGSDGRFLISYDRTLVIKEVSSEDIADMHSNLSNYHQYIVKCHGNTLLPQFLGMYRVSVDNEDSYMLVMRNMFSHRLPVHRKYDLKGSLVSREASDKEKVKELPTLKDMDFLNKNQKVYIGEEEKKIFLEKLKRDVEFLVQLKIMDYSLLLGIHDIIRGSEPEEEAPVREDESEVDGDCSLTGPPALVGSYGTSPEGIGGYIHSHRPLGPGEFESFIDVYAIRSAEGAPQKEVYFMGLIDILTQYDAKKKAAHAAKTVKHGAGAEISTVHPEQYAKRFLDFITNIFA
Procedure: as §1

[17] = target: kinases in BCWM.1 cells (Homo sapiens, UniProt P51955); settings: NEK2; Lys2; 1 μM, 90 min; GF
Procedure: as §1

[18] = target: kinases in BCWM.1 cells (Homo sapiens, UniProt Q96SB4); settings: SRPK1; Lys2; 1 μM, 90 min; GF
Procedure: as §1

[19] = target: kinases in BCWM.1 cells (Homo sapiens, UniProt Q9UHD2); settings: TBK1; Lys1; 1 μM, 90 min; GF
Procedure: as §1

[20] = target: kinases in BCWM.1 cells (Homo sapiens, UniProt Q7RTN6); settings: STLK5; Activation Loop; 1 μM, 90 min; GF
Procedure: as §1

[21] = target: kinases in BCWM.1 cells (Homo sapiens, UniProt Q15349); settings: RSK3 domain1; Lys2; 1 μM, 90 min; GF
Procedure: as §1

[22] = target: kinases in BCWM.1 cells (Homo sapiens, UniProt Q96S38); settings: RSKL1; ATP; 1 μM, 90 min; GF
Procedure: as §1

[23] = target: kinases in BCWM.1 cells (Homo sapiens, UniProt Q9UKI8); settings: TLK1; Lys2; 1 μM, 90 min; GF
Procedure: as §1

[24] = target: kinases in BCWM.1 cells (Homo sapiens, UniProt Q8NEB9); settings: PIK3C3; ATP; 1 μM, 90 min; GF
Procedure: as §1

[25] = target: kinases in BCWM.1 cells (Homo sapiens, UniProt Q13464); settings: ROCK1; Protein Kinase Domain; 1 μM, 90 min; GF
kinases in BCWM.1 cells (Homo sapiens, UniProt Q13464), sequence (Q13464 2-1354 limits assumed): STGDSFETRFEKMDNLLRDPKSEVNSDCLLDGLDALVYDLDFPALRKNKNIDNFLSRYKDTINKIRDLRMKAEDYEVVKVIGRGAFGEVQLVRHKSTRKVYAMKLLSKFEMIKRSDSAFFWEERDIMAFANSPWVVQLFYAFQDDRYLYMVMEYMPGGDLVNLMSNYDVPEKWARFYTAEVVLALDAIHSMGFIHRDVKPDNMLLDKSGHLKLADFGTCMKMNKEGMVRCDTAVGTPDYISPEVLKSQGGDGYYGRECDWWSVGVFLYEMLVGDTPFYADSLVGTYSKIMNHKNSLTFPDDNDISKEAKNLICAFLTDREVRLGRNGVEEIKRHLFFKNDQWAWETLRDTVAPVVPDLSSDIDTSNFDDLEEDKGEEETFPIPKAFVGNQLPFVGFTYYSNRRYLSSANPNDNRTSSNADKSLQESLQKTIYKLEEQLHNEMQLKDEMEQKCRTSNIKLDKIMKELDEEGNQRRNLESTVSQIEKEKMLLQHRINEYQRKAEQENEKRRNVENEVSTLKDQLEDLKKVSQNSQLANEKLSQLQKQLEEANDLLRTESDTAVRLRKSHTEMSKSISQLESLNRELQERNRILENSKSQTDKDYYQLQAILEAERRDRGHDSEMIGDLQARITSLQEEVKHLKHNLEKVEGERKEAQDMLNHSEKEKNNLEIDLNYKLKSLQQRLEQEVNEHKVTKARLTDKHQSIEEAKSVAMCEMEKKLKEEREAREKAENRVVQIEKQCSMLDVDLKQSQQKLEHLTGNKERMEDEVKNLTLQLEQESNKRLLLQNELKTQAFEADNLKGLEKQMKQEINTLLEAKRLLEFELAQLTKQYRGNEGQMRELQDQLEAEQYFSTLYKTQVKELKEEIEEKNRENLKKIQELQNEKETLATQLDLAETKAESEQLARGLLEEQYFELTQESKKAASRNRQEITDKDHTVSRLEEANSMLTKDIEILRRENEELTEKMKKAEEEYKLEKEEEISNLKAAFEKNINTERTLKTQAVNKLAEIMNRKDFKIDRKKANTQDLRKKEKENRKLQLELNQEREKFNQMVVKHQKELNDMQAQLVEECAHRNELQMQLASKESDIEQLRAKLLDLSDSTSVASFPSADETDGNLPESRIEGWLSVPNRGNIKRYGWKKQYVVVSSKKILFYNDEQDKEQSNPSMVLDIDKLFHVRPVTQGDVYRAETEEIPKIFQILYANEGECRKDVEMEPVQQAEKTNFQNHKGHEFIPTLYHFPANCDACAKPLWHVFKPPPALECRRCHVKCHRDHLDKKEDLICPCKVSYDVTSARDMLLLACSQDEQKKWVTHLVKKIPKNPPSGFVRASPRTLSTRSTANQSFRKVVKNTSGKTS
Procedure: as §1

[26] = target: kinases in BCWM.1 cells (Homo sapiens, UniProt O75385); settings: ULK1; Lys2; 1 μM, 90 min; GF
Procedure: as §1

[27] = target: kinases in BCWM.1 cells (Homo sapiens, UniProt Q8TD19); settings: NEK9; Lys2; 1 μM, 90 min; GF
kinases in BCWM.1 cells (Homo sapiens, UniProt Q8TD19), sequence (Q8TD19 2-979 limits assumed): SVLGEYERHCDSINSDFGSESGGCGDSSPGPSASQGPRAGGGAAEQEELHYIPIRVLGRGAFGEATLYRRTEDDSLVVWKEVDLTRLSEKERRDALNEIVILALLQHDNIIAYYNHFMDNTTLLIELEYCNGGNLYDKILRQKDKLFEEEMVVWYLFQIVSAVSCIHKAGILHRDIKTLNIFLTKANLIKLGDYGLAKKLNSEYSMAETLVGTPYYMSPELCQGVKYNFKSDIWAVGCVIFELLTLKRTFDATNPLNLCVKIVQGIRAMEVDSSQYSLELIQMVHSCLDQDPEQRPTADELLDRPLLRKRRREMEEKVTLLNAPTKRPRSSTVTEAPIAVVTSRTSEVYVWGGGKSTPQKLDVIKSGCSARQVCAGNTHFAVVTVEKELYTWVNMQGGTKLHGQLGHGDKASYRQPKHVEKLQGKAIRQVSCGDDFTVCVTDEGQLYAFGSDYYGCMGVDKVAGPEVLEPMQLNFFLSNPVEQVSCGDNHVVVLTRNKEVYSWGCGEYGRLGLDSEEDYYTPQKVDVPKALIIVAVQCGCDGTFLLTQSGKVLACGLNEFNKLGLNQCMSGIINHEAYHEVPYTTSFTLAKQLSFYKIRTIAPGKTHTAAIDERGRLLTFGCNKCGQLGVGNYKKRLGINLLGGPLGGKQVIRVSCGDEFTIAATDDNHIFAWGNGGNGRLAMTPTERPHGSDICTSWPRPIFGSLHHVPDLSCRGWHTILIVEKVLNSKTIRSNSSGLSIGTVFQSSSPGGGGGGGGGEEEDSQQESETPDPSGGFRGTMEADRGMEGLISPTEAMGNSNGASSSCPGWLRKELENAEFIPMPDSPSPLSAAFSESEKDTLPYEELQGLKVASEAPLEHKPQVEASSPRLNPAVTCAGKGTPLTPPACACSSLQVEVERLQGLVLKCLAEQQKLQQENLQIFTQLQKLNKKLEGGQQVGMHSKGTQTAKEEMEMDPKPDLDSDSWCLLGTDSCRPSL
Procedure: as §1

[28] = target: kinases in BCWM.1 cells (Homo sapiens, UniProt Q9BYT3); settings: STK33; Lys2; 1 μM, 90 min; GF
Procedure: as §1

[29] = target: kinases in BCWM.1 cells (Homo sapiens, UniProt Q16816); settings: PHKg1; Protein Kinase Domain; 1 μM, 90 min; GF
Procedure: as §1

Structure (SMILES) | % change of MS signal compared to control sample [1] | % change of MS signal compared to control sample [2] | % change of MS signal compared to control sample [3] | % change of MS signal compared to control sample ([4]; RSK2 domain1) | % change of MS signal compared to control sample ([4]; RSK2 domain2) | % change of MS signal compared to control sample [5] | % change of MS signal compared to control sample [6] | % change of MS signal compared to control sample [7] | % change of MS signal compared to control sample [8] | % change of MS signal compared to control sample [9] | % change of MS signal compared to control sample ([10]; Lys2) | % change of MS signal compared to control sample ([10]; Protein Kinase Domain) | % change of MS signal compared to control sample [11] | % change of MS signal compared to control sample [12] | % change of MS signal compared to control sample [13] | % change of MS signal compared to control sample [14] | % change of MS signal compared to control sample [15] | % change of MS signal compared to control sample [16] | % change of MS signal compared to control sample [17] | % change of MS signal compared to control sample [18] | further results
C=CC(=O)N1CC[C@H](Nc2nccc(Nc3ncc(C(=O)Nc4c(C)cccc4C)s3)n2)C1 [Example I-3] | 5.7% | 40.2% | 7.3% | −15.5% | −16.5% | −1.1% | 39.1% | 6.8% | −2.5% | 6.4% | 70% | 67.9% | >91% | 96.7% | 9.9% | −36.7% | −14.7% | 27% | 0.9% | −16.8% | % change of MS signal compared to control sample [19]: −1.6%; % change of MS signal compared to control sample [20]: −17.7%; % change of MS signal compared to control sample [21]: −19%; % change of MS signal compared to control sample [22]: −25.8%; % change of MS signal compared to control sample [23]: −6.9%; % change of MS signal compared to control sample [24]: −0.8%; % change of MS signal compared to control sample [25]: −16.9%; % change of MS signal compared to control sample [26]: −8.2%; % change of MS signal compared to control sample [27]: −9.9%; % change of MS signal compared to control sample [28]: 11.8%; % change of MS signal compared to control sample [29]: −38.8%
CCC(=O)N1CC[C@H](Nc2nccc(Nc3ncc(C(=O)Nc4c(C)cccc4C)s3)n2)C1 [Example I-9] | −1.6% | 30.1% | −1.7% | −8.4% | 1.6% | −6.1% | 12.7% | 3.1% | 1% | 15.4% | 9.8% | 8.7% | 40.8% | 86.1% | −9.2% | −1% | 8% | −3.9% | 4.3% | −0.4% | % change of MS signal compared to control sample [19]: 10.8%; % change of MS signal compared to control sample [20]: −9.4%; % change of MS signal compared to control sample [21]: −4.1%; % change of MS signal compared to control sample [22]: 1.8%; % change of MS signal compared to control sample [23]: −2.3%; % change of MS signal compared to control sample [24]: −9.4%; % change of MS signal compared to control sample [25]: −2.1%; % change of MS signal compared to control sample [26]: −1.7%; % change of MS signal compared to control sample [27]: −12.6%; % change of MS signal compared to control sample [28]: 16.1%; % change of MS signal compared to control sample [29]: −26.2%
